System: patients with advanced or metastatic solid tumors
Assay: Phase 1 study: treatment-related adverse events (NCI CTCAE v4.03)
Assay type: in vivo, human
Details: for Anemia (treatment-related adverse event) / Blood bilirubin increased (treatment-related adverse event) / Decreased appetite (treatment-related adverse event) / Diarrhea (treatment-related adverse event) / Fatigue (treatment-related adverse event) / GGT increased (treatment-related adverse event) / Hypoalbuminemia (treatment-related adverse event) / Malaise (treatment-related adverse event) / Nausea (treatment-related adverse event) / Neuropathy peripheral (treatment-related adverse event) / Pyrexia (treatment-related adverse event) / Rash (treatment-related adverse event) / Vomiting (treatment-related adverse event) / WBC decreased (treatment-related adverse event) / ALP increased (treatment-related adverse event) / ALT increased (treatment-related adverse event) / AST increased (treatment-related adverse event): Grade ≥ 3
Protocol: The highest non-severely toxic dose was derived from a dog toxicology study and was used to calculate a clinical starting dose of 10 mg/m^2, which corresponds to one-sixth of the human-equivalent dose. The maximum tolerated dose (MTD) of TAS4464 was investigated using an accelerated titration design. Initially, the starting TAS4464 dose was 10 mg/m^2 and was followed by an initial accelerated stage (i.e., weekly dosing phase) with 100% dose-step increments (level 1: 10 mg/m^2, level 2: 20 mg/m^2, level 3: 40 mg/m^2, and level 4: 56 mg/m^2). The 100% dose-step increments continued until the occurrence of a grade ≥ 2 drug-related toxicity within Cycle 1; dose-limiting toxicity (DLT) within Cycle 1; the next dose level reaching 60 mg/m^2; or any safety concerns. Thereafter, 40% increments were employed in the standard stage.
In the standard stage, three to six patients were to be enrolled, and the dose was escalated in 40% increments if none of the first three patients experienced a DLT. If one patient experienced a DLT, three additional patients were to be enrolled at the same dose level. If two of three or two of six patients experienced a DLT, the dose escalation was to be ceased. […] Additionally, DLT criteria regarding abnormal liver function and discontinuation criteria for study drug administration were added. The TAS4464 dose level for Day 1 of Cycle 1 was then set to 40 mg/m^2 (level 3).
Therefore, TAS4464 was administered every 7 days by 1-h intravenous infusion (± 10 min) at the dose assigned to each level. Study treatment was repeated every 28 days. The dosing regimens of each cohort are summarized in Supplementary Fig. 1.
Secondary objectives included assessment of AEs, treatment-related AEs, objective response rate (ORR), disease control rate (DCR), progression-free survival (PFS), and PK, pharmacodynamic, and pharmacogenomic (PGx) parameters with TAS4464 administration. The National Cancer Institute Common Terminology Criteria for Adverse Events (NCI CTCAE) v4.03 [17] was used to assess the severity of AEs. […] RECIST v1.1 [16] was used to determine clinical response, and all computed tomography images were assessed by the physician at the study site after completion of the imaging procedure. The ORR was defined as the percentage of patients with the best overall response of complete response (CR) or partial response (PR). The DCR was the percentage of patients with a best overall response of CR, PR, stable disease (SD), or non-CR/non-progressive disease (PD). PFS was defined as the time from the date of enrollment until the date of investigator-assessed radiological disease progression or death due to any cause, whichever occurred first.

[1] = weekly dosing Level 1 (10 mg/m^2), n = 1
[2] = weekly dosing Level 2 (20 mg/m^2), n = 1
[3] = weekly dosing Level 3 (40 mg/m^2), n = 3
[4] = weekly dosing Level 4 (56 mg/m^2), n = 5
[5] = weekly dosing with lead-in Level 3 (20 → 40 mg/m^2), n = 3
[6] = weekly dosing with lead-in Level 4 (20 → 56 mg/m^2), n = 3

SMILES: CCOc1cccc(F)c1C#Cc1cn([C@@H]2O[C@H](CNS(N)(=O)=O)[C@@H](O)[C@H]2O)c2ncnc(N)c12 [TAS4464]
- Anemia (treatment-related adverse event) (Total, N = 16): 0 n (%)
- Blood bilirubin increased (treatment-related adverse event) (Total, N = 16): 0 n (%)
- Decreased appetite (treatment-related adverse event) (Total, N = 16): 0 n (%)
- Diarrhea (treatment-related adverse event) (Total, N = 16): 0 n (%)
- Fatigue (treatment-related adverse event) (Total, N = 16): 0 n (%)
- GGT increased (treatment-related adverse event) (Total, N = 16): 3 (18.8) n (%)
- Hypoalbuminemia (treatment-related adverse event) (Total, N = 16): 0 n (%)
- Malaise (treatment-related adverse event) (Total, N = 16): 0 n (%)
- Nausea (treatment-related adverse event) (Total, N = 16): 0 n (%)
- Neuropathy peripheral (treatment-related adverse event) (Total, N = 16): 0 n (%)
- Pyrexia (treatment-related adverse event) (Total, N = 16): 0 n (%)
- Rash (treatment-related adverse event) (Total, N = 16): 0 n (%)
- Vomiting (treatment-related adverse event) (Total, N = 16): 0 n (%)
- WBC decreased (treatment-related adverse event) (Total, N = 16): 1 (6.3) n (%)
- ALP increased (treatment-related adverse event) [1]: 0 n (%)
- ALT increased (treatment-related adverse event) [1]: 0 n (%)
- AST increased (treatment-related adverse event) [1]: 0 n (%)
- Anemia (treatment-related adverse event) [1]: 0 n (%)
- Blood bilirubin increased (treatment-related adverse event) [1]: 0 n (%)
- Decreased appetite (treatment-related adverse event) [1]: 0 n (%)
- Diarrhea (treatment-related adverse event) [1]: 0 n (%)
- Fatigue (treatment-related adverse event) [1]: 0 n (%)
- GGT increased (treatment-related adverse event) [1]: 0 n (%)
- Hypoalbuminemia (treatment-related adverse event) [1]: 0 n (%)
- Malaise (treatment-related adverse event) [1]: 0 n (%)
- Nausea (treatment-related adverse event) [1]: 0 n (%)
- Neuropathy peripheral (treatment-related adverse event) [1]: 0 n (%)
- Pyrexia (treatment-related adverse event) [1]: 0 n (%)
- Rash (treatment-related adverse event) [1]: 0 n (%)
- Vomiting (treatment-related adverse event) [1]: 0 n (%)
- WBC decreased (treatment-related adverse event) [1]: 0 n (%)
- ALP increased (treatment-related adverse event) [2]: 0 n (%)
- ALT increased (treatment-related adverse event) [2]: 0 n (%)
- AST increased (treatment-related adverse event) [2]: 0 n (%)
- Anemia (treatment-related adverse event) [2]: 0 n (%)
- Blood bilirubin increased (treatment-related adverse event) [2]: 0 n (%)
- Decreased appetite (treatment-related adverse event) [2]: 0 n (%)
- Diarrhea (treatment-related adverse event) [2]: 0 n (%)
- Fatigue (treatment-related adverse event) [2]: 0 n (%)
- GGT increased (treatment-related adverse event) [2]: 0 n (%)
- Hypoalbuminemia (treatment-related adverse event) [2]: 0 n (%)
- Malaise (treatment-related adverse event) [2]: 0 n (%)
- Nausea (treatment-related adverse event) [2]: 0 n (%)
- Neuropathy peripheral (treatment-related adverse event) [2]: 0 n (%)
- Pyrexia (treatment-related adverse event) [2]: 0 n (%)
- Rash (treatment-related adverse event) [2]: 0 n (%)
- Vomiting (treatment-related adverse event) [2]: 0 n (%)
- WBC decreased (treatment-related adverse event) [2]: 0 n (%)
- ALP increased (treatment-related adverse event) [3]: 0 n (%)
- ALT increased (treatment-related adverse event) [3]: 1 (33.3) n (%)
- AST increased (treatment-related adverse event) [3]: 1 (33.3) n (%)
- Anemia (treatment-related adverse event) [3]: 0 n (%)
- Blood bilirubin increased (treatment-related adverse event) [3]: 0 n (%)
- Decreased appetite (treatment-related adverse event) [3]: 0 n (%)
- Diarrhea (treatment-related adverse event) [3]: 0 n (%)
- Fatigue (treatment-related adverse event) [3]: 0 n (%)
- GGT increased (treatment-related adverse event) [3]: 0 n (%)
- Hypoalbuminemia (treatment-related adverse event) [3]: 0 n (%)
- Malaise (treatment-related adverse event) [3]: 0 n (%)
- Nausea (treatment-related adverse event) [3]: 0 n (%)
- Neuropathy peripheral (treatment-related adverse event) [3]: 0 n (%)
- Pyrexia (treatment-related adverse event) [3]: 0 n (%)
- Rash (treatment-related adverse event) [3]: 0 n (%)
- Vomiting (treatment-related adverse event) [3]: 0 n (%)
- WBC decreased (treatment-related adverse event) [3]: 0 n (%)
- ALP increased (treatment-related adverse event) [4]: 1 (20.0) n (%)
- ALT increased (treatment-related adverse event) [4]: 3 (60.0) n (%)
- AST increased (treatment-related adverse event) [4]: 3 (60.0) n (%)
- Anemia (treatment-related adverse event) [4]: 0 n (%)
- Blood bilirubin increased (treatment-related adverse event) [4]: 0 n (%)
- Decreased appetite (treatment-related adverse event) [4]: 0 n (%)
- Diarrhea (treatment-related adverse event) [4]: 0 n (%)
- Fatigue (treatment-related adverse event) [4]: 0 n (%)
- GGT increased (treatment-related adverse event) [4]: 3 (60.0) n (%)
- Hypoalbuminemia (treatment-related adverse event) [4]: 0 n (%)
- Malaise (treatment-related adverse event) [4]: 0 n (%)
- Nausea (treatment-related adverse event) [4]: 0 n (%)
- Neuropathy peripheral (treatment-related adverse event) [4]: 0 n (%)
- Pyrexia (treatment-related adverse event) [4]: 0 n (%)
- Rash (treatment-related adverse event) [4]: 0 n (%)
- Vomiting (treatment-related adverse event) [4]: 0 n (%)
- WBC decreased (treatment-related adverse event) [4]: 1 (20.0) n (%)
- ALP increased (treatment-related adverse event) [5]: 0 n (%)
- ALT increased (treatment-related adverse event) [5]: 0 n (%)
- AST increased (treatment-related adverse event) [5]: 0 n (%)
- Anemia (treatment-related adverse event) [5]: 0 n (%)
- Blood bilirubin increased (treatment-related adverse event) [5]: 0 n (%)
- Decreased appetite (treatment-related adverse event) [5]: 0 n (%)
- Diarrhea (treatment-related adverse event) [5]: 0 n (%)
- Fatigue (treatment-related adverse event) [5]: 0 n (%)
- GGT increased (treatment-related adverse event) [5]: 0 n (%)
- Hypoalbuminemia (treatment-related adverse event) [5]: 0 n (%)
- Malaise (treatment-related adverse event) [5]: 0 n (%)
- Nausea (treatment-related adverse event) [5]: 0 n (%)
- Neuropathy peripheral (treatment-related adverse event) [5]: 0 n (%)
- Pyrexia (treatment-related adverse event) [5]: 0 n (%)
- Rash (treatment-related adverse event) [5]: 0 n (%)
- Vomiting (treatment-related adverse event) [5]: 0 n (%)
- WBC decreased (treatment-related adverse event) [5]: 0 n (%)
- ALP increased (treatment-related adverse event) [6]: 0 n (%)
- ALT increased (treatment-related adverse event) [6]: 1 (33.3) n (%)
- AST increased (treatment-related adverse event) [6]: 1 (33.3) n (%)
- Anemia (treatment-related adverse event) [6]: 0 n (%)
- Blood bilirubin increased (treatment-related adverse event) [6]: 0 n (%)
- Decreased appetite (treatment-related adverse event) [6]: 0 n (%)
- Diarrhea (treatment-related adverse event) [6]: 0 n (%)
- Fatigue (treatment-related adverse event) [6]: 0 n (%)
- GGT increased (treatment-related adverse event) [6]: 0 n (%)
- Hypoalbuminemia (treatment-related adverse event) [6]: 0 n (%)
- Malaise (treatment-related adverse event) [6]: 0 n (%)
- Nausea (treatment-related adverse event) [6]: 0 n (%)
- Neuropathy peripheral (treatment-related adverse event) [6]: 0 n (%)
- Pyrexia (treatment-related adverse event) [6]: 0 n (%)
- Rash (treatment-related adverse event) [6]: 0 n (%)
- Vomiting (treatment-related adverse event) [6]: 0 n (%)
- WBC decreased (treatment-related adverse event) [6]: 0 n (%)
- ALT increased, Grade ≥ 3 treatment-related AE (all treated patients): 31.3%
- ALT increased, all-grade treatment-related AE (all treated patients): 68.8%
- AST increased, Grade ≥ 3 treatment-related AE (all treated patients): 31.3%
- AST increased, all-grade treatment-related AE (all treated patients): 62.5%
- alkaline phosphatase (ALP) increased, all-grade treatment-related AE (all treated patients): 43.8%
- decreased appetite, all-grade treatment-related AE (all treated patients): 31.3%
- nausea, all-grade treatment-related AE (all treated patients): 43.8%
- drug-induced liver injury by Hy's law criteria (doses of up to 56 mg/m^2): No patients presented with drug-induced liver injury
- treatment-related serious AE (weekly dosing level 4, resolved following TAS4464 dose reduction): ALT increased occurring in one patient
- serious AEs (whole study): Four serious AEs were reported in three patients
- deaths or fatal AEs (within the study period): No deaths or fatal AEs occurred

Reference: PMC8279981, “A first-in-human, phase 1 study of the NEDD8 activating enzyme E1 inhibitor TAS4464 in patients with advanced solid tumors” (Investigational New Drugs, 2021)
